Laboratory results as given in PMC5469451, “Identification of compounds that suppress Toxoplasma gondii tachyzoites and bradyzoites” (PLoS ONE, 2017).
Read-outs that look alike come from different tables or passages of the source.

Key:
[1] = tested on: PLK/DLUC_1C9 tachyzoites in Vero cells; assay: Primary screening: T. gondii growth assay, Renilla luciferase; type: cell-based, Toxoplasma gondii; details: 10 μM, 48 h, PLK/DLUC_1C9 in Vero cells, DMSO = 0%, 10 μM pyrimethamine = 100%; for inhibition at 10 µM: Toxoplasma gondii, read-out: Parasite Inhibition (%)
Procedure: In the primary screening, purified PLK/DLULC_1C9 tachyzoites were incubated with Vero cells at a multiplicity of infection (MOI) of 0.5. After a 2-h incubation, the infected host cells were trypsinized to obtain a cell suspension and then these suspended infected cells were inoculated into 96-well optical bottom plates containing the compound library. Each well was inoculated with 2500 cells in 25 μL of culture medium. […] Following cell inoculation, each well therefore contained 0.5% DMSO and 10 μM compound. After 48 h of culture, Renilla luciferase activity was measured by using Renilla-Glo (Promega, WI, USA) following the manufacturer’s instructions. […] The Z’-value for each plate was calculated from the Renilla luciferase activity in the negative and positive control wells.

[2] = tested on: Vero cells; assay: Host cell cytotoxicity assay (Cell-Titer Glo), Vero cells; type: cell-based
Procedure: (§1) Host cells were treated with compounds at the same concentration used for screening (i.e., 0.5% DMSO and 10 μM compound). Vero cells and HFF cells were both used as host cells because both cell types were used for the parasite screening. After incubation for 48 h in DMEM supplemented with 5% FBS, L-glutamine, penicillin, and streptomycin, cell viabilities were measured by using a Cell-Titer Glo kit (Promega) following the manufacturer’s instructions. Control wells were treated with DMSO alone in culture medium to calculate the 100% viability for each cell type.

[3] = tested on: RH-2F tachyzoites (type I strain) in HFF cells; assay: Confirmatory screening: RH-2F β-galactosidase growth assay in HFF cells; type: cell-based, Toxoplasma gondii; details: for Parasite inhibition (%) / inhibition at 25 µM / inhibition at 2.5 µM: 48 h, RH-2F in HFF, compared with 10 μM pyrimethamine; for inhibition at 25 µM / IC50 / inhibition at 2.5 µM: Toxoplasma gondii; for inhibition at 25 µM / inhibition at 2.5 µM: read-out: Parasite inhibition (%); for IC50: RH-2F in HFF cells, β-galactosidase assay, read-out: IC50 for parasite growth (95% CI)
Procedure: In the confirmatory screening, we utilize an RH strain β-galactosidase reporter parasite termed RH-2F (a type I strain). Briefly, RH-2F parasites were purified from freshly lysed infected host cells and used to infect confluent HFF cells cultured in 96-well plates. Five hundred parasites were added to each well, along with each test compound and 50 μL of culture medium. Plates were then incubated for 10 min at room temperature followed by an incubation at 37°C for 48 h in a CO2 incubator.
(§2) To measure the effects of tanshinone IIA and hydroxyzine on intracellular parasite growth, parasites were allowed to invade for 2 h, uninvaded parasites were washed away, and medium with compounds was added. After 48 h, the plates were frozen at -80°C. Plates were then thawed just prior to the measurement of beta-galactosidase activity. Beta-Glo (Promega) was used to measure β-galactosidase activity following the manufacturer’s instructions.

[4] = tested on: HFF cells; assay: Host cell cytotoxicity assay (Cell-Titer Glo), HFF cells; type: cell-based, human
Procedure: as §1, with “Vero” for “Host cells were treated with compounds at the same concentration used for screening (i.e., 0.5% DMSO and 10 μM compound). Vero”

[5] = Host cell cytotoxicity assay (Cell-Titer Glo), Vero cells; type: cell-based; details: African green monkey
Procedure: as §1

[6] = Host cell cytotoxicity assay (Cell-Titer Glo), HFF cells; type: cell-based, human; details: human
Procedure: as §1, with “Vero” for “Host cells were treated with compounds at the same concentration used for screening (i.e., 0.5% DMSO and 10 μM compound). Vero”

[7] = tested on: RH-2F intracellular parasites in HFF cells; assay: Intracellular parasite growth after invasion (β-galactosidase); type: cell-based, Toxoplasma gondii; details: uninvaded parasites washed away, 48 h; 1.0 μM hydroxyzine, 2.5 μM tanshinone IIA, 25 mg/ml DS10
Procedure: as §2

[8] = tested on: PLK/DLUC_1C9 parasites in HFF cells; assay: Bradyzoite differentiation assay, relative BAG1 promoter activity (Dual-Glo); type: cell-based, Toxoplasma gondii; details: 1 μM hydroxyzine, 2.5 μM tanshinone IIA; added 24 h after infection, 48 h treatment
Procedure: To measure bradyzoite induction activities of tanshinone IIA and hydroxyzine, PLK/DLUC_1C9 parasites were purified and then inoculated at a concentration of 2.0 x 10^4 parasites/well into 12-well plates containing confluent monolayers of HFF cells. Cells were incubated for 24 h after infection, then compounds were added, and the cells were incubated for 48 h. After incubation, the cells in each well were lysed using 200 μL of Passive Lysis Buffer (Promega) and the lysates were stored at -80°C. For the luciferase assay, 25 μL of lysate was used and the Renilla and firefly luciferase activities were measured by using Dual-Glo (Promega) according to the manufacturer’s instruction.

[9] = tested on: PruΔku80Δhxgprt in HFF cells; assay: Immunofluorescence-based assay on spontaneously induced bradyzoites; type: cell-based, Toxoplasma gondii; details: 10, 2, 0.4, 0.08 μM, 48 h; for Bradyzoite differentiation (GFP-positive PV rate): compared with DMSO
Procedure: PruΔku80Δhxgprt, which expresses GFP under the control of a bradyzoite-specific gene LDH2 promoter, [13] was used. HFF host cells were seeded to a 96-well glass bottom plate (MGB096-1-2-LG-L, Brooks Automation, MA, USA) and cultured until confluent. Parasites were freshly lysed by passing them through 27 G needles and were purified by passing them through a 5-μm-pore filter. Five thousand parasites in 100 μL of culture medium were added and mixed with an equal volume of compound-containing medium to give final drug concentrations of 10, 2, 0.4, and 0.08 μM in 0.2% DMSO. After incubation at room temperature for 10 min, the infected host cells were incubated for 48 h at 37°C in a 5% CO2 incubator. After incubation, the cells were fixed with 4% paraformaldehyde in PBS for 20 min, quenched, and permeabilized with 0.2 M glycine and 0.2% TritonX-100 in PBS for 20 min, and then blocked with 3% BSA and 0.1% Tween 20 in PBS (blocking buffer); each procedure was performed at room temperature and was followed by washes with PBS three times. All parasites were stained with an anti-Toxoplasma mouse antibody (antisera produced in ME49-infected mice), and bradyzoites were detected with an anti-GFP rabbit monoclonal antibody (Life Technologies). Secondary antibodies for mouse (Alexa633 conjugated) and rabbit (Alexa488 conjugated) and DAPI were used to develop the fluorescent signal. Stained cells on 96-well plates were analyzed with a CompuCyte iCys Research Imaging Cytometer (Beckman Coulter, IN, USA).

[10] = tested on: PLK/DLUC_1C9 in vitro-induced bradyzoites in HFF cells; assay: Effect on in vitro-induced bradyzoites (Dual-Glo firefly luciferase, BAG1 promoter); type: cell-based, Toxoplasma gondii; details: 3 days bradyzoite induction, then 10, 5, 2.5, 1 μM for 48 h; relative to DMSO
Procedure: To measure the effect of tanshinone IIA and hydroxyzine on in vitro-induced bradyzoites, we used PLK/DLUC_ 1C9 parasites and the Dual-Glo luciferase assay. Briefly, HFF cells in 96-well plates were infected with 1 x 10^4 parasites/well and incubated for 3 days with ambient CO2 condition in DMEM containing 25 mM HEPES pH 8.1 and 1% FBS to induce bradyzoites. Induced bradyzoites were treated with 10, 5, 2.5, and 1 μM compounds under bradyzoite-inducing conditions. After 48 h, luciferase activities were measured by using the Dual-Glo assay system (Promega) and normalized by host cell number.

[11] = tested on: HFF cells; assay: Host cell viability in bradyzoite differentiation condition; type: cell-based, human
Procedure: To evaluate the host cell viability in bradyzoite differentiation condition, HFF cells were incubated for 48 h in DMEM containing 25 mM HEPES pH 8.1 and 1% FBS and measured the viability as described above.

[12] = 10 μM, 48 h, Vero cells, DMSO = 100%
[13] = 25 μM, 48 h, HFF cells, compared with DMSO
[14] = 10 μM, 48 h, Vero cells, DMSO = 100%, read-out: Host Viability (%)

Compound	Parasite inhibition (%) [1]	Host Viability (%) ([2]; 10 µM)	Parasite inhibition (%) ([3]; 2.5 μM)	Parasite inhibition (%) ([3]; 25 μM)	Host cell viability (%) [4, 13]	inhibition at 10 µM [1]	Parasite growth (total parasite vacuole size) [9]	Bradyzoite differentiation (GFP-positive PV rate) [9]	Bradyzoite number (firefly luciferase under BAG1 promoter, normalized by host cell number) [10]	also measured
CC(C)(C)c1ccc(C(O)CCCN2CCC(C(O)(c3ccccc3)c3ccccc3)CC2)cc1 (racemic) [(±)-Terfenadine]	104%	85%	-12%	96%	–	–	–	–	–	Host cell viability (%) ([4]; 2.5 µM): 96%; Host cell viability (%) ([4]; 25 µM): 0.1%
CCCCC/C=C\C/C=C\C/C=C\C/C=C\CCCC(=O)Nc1ccc(O)cc1 [AM404]	103%	–	-11%	59%	86%	–	–	–	–	Host Viability (%) [2, 12]: 100%; Host cell viability (%) ([4]; 2.5 μM, 48 h, HFF cells): 93%
OCCOCCN1CCN(C(c2ccccc2)c2ccc(Cl)cc2)CC1 (stereo not drawn) [Hydroxyzine]	–	–	100%	–	100%	97%	reduced parasite growth in a concentration-dependent manner	did not induce bradyzoite differentiation even at high concentrations	reduced the bradyzoite number	viability at 48 h, 10 µM [5, 14]: 101%; inhibition at 25 µM ([3]; 25 μM): 107%; IC50 [3]: 1000 nM; viability at 48 h, 2.5 µM ([6]; HFF cells, 2.5 μM, 48 h, HFF cells, read-out: Host cell viability (%)): 102%; Host cell viability (%) ([4]; 25 μM, 48 h, HFF cells, compared with DMSO, listed as hydroxyzine): no effect on host cell viability; Parasite growth when compound added after 2 h invasion window [7]: reduced parasite growth in a dose dependent manner; Relative BAG1 promoter activity (bradyzoite ratio) compared with 5 μM pyrimethamine treatment [8]: 0.4%; Host cell viability under the bradyzoite-inducing condition ([11]; pH 8.1): did not affect the host cell viability
Cc1ccc(C(=O)c2cc(/C=C/C(=O)NO)n(C)c2)cc1 [MC-1293]	103%	–	12%	95%	95%	–	–	–	–	Host Viability (%) [2, 12]: 85%; Host cell viability (%) ([4]; 2.5 μM, 48 h, HFF cells): 98%
OCCN1CCN(CCCN2c3ccccc3Sc3ccc(Cl)cc32)CC1 [Perphenazine]	–	–	–	–	–	104%	–	–	–	viability at 48 h, 10 µM [5]: 84%; inhibition at 2.5 µM ([3]; HFF, 2.5 μM): -6.8%; inhibition at 25 µM ([3]; 25 μM): 112%; viability at 48 h, 2.5 µM ([6]; Host cell viability (%)): 95%; viability at 48 h, 25 µM ([6]; Host cell viability (%)): 65%
CC[N+](C)(CC)CCC[n+]1c(-c2ccccc2)c2cc(N)ccc2c2ccc(N)cc21.[I-].[I-] [Propidium Iodide]	91%	91%	–	–	–	–	–	–	–	–
CCc1nc(N)nc(N)c1-c1ccc(Cl)cc1 [Pyrimethamine]	–	–	–	–	–	–	reduced parasite growth in a concentration-dependent manner	induced bradyzoite differentiation	cannot reduce bradyzoite numbers	–
COc1ccc(Cl)cc1NC(=O)Nc1cc(C)nc2ccccc12 [TCMDC-125497]	106%	82%	20%	113%	–	–	–	–	–	Host cell viability (%) ([4]; 2.5 µM): 99%; Host cell viability (%) ([4]; 25 µM): 78%
Cc1coc2c1C(=O)C(=O)c1c-2ccc2c1CCCC2(C)C [Tanshinone IIA]	–	–	55%	–	75%	91%	reduced parasite growth in a concentration-dependent manner	did not induce bradyzoite differentiation even at high concentrations	reduced the bradyzoite number	viability at 10 µM [5, 14]: 83%; inhibition at 2.5 µM ([3]; HFF, 2.5 μM): > 50%; inhibition at 25 µM ([3]; HFF, 25 μM): 112%; IC50 [3]: 2500 nM; viability at 2.5 µM ([6]; 2.5 μM, 48 h, HFF cells, read-out: Host cell viability (%)): 99%; Parasite growth when compound added after 2 h invasion window [7]: reduced parasite growth in a dose dependent manner; Relative BAG1 promoter activity (bradyzoite ratio) compared with 5 μM pyrimethamine treatment [8]: 4.7%; Host cell viability under the bradyzoite-inducing condition ([11]; HFF, pH 8.1, 1% FBS, 48 h): slightly reduced the host cell number
